Laboratory results reported in article PMC12648368 (British Journal of Clinical Pharmacology, 2025).
Entries after “also recorded” stand apart in the source; their conditions may differ. Where two headings read alike, the source gives them in different places. Blank lines part the entries; values can stand above or below the molecule they belong to.

Assays:
plasma proteins = conditions: cited from earlier work
[1] = Population pharmacokinetic model of plasma atazanavir and ritonavir concentrations, DERIVE study (ATV/r with or without rifampicin); conditions: for Fold‐change in CL for ATV/r BID + RIF: ATV/r 300/100 mg BID with rifampicin; for Vd / bioavailability / clearance: human, plasma, oral; for Fold‐change in CL for ATV/r QD + RIF: rifampicin 600 mg QD added to ATV/r; for Effect of increasing rifampicin dose on clearance, bioavailability / pharmacokinetics: rifampicin 1200 mg QD vs 600 mg QD, ATV/r BID
[2] = Final atazanavir model applied to atazanavir-only data (without ritonavir) of the ACTG A5231 study
Protocol: Atazanavir was administered with or without rifampicin in three periods: 300 mg BID for 8 days (period 1), 300 mg BID with rifampicin 600 mg QD for 11 days (period 2) and 400 mg BID with rifampicin 600 mg QD for 8 days (period 3).[30] Pharmacokinetic sampling was conducted at the end of each period, with blood collected 15 min predose and at 1‐, 2‐, 3‐, 4‐, 5‐, 6‐, 8‐, 10‐, 12‐, and 24‐h postdose. Plasma samples were analysed at the University of Alabama using HPLC with UV detection (LLOQ 0.025 mg/L).[30]
The final atazanavir model, developed with DERIVE data, was applied to the A5231 dataset. We made the following adjustment to our model to account for the differences between the two studies.
All fixed parameters are estimates from DERIVE study population.

[3] = Effect-compartment model of intracellular PBMC concentrations, DERIVE study; type: in vivo, human; conditions: for Equilibration half‐life, t 1/2 (plasma to PBMC) / half-life / Kp: PBMC effect compartment, estimate (95% CI); for half-life / Kp: human, oral; for half-life: PBMC, read-out: Equilibration half‐life, t 1/2 (plasma to PBMC) (converted); for Kp: read-out: Pseudo‐partition coefficient, PPC (ratio of drug in PBMC to plasma)
Protocol: Pharmacokinetic sampling was conducted over four visits. […] The rifampicin dose was increased to 1200 mg once daily (QD) for 1 week. […] Dolutegravir was maintained for an additional 2 weeks. […] Blood samples were centrifuged and stored at -80 °C prior to shipment and assay at the University of Cape Town, where drug concentrations were measured using high-performance liquid chromatography with tandem mass spectrometry (HPLC MS/MS). […] Atazanavir and ritonavir pharmacokinetic models were separately developed using […] data. We tested one- and two-compartment disposition models with linear elimination, and delayed absorption modelled by a lag time or series of transit compartments. PBMC concentrations were modelled using a hypothetical effect compartment connected to the central compartment of the plasma model. An equilibration half-life (t1/2) and a pseudopartition coefficient (PPC) were used to parameterize the rate of drug entry into the PBMC compartment and its accumulation ratio between the PBMC and plasma, respectively (Figure S1).

HIV‐1 = conditions: against HIV‐1; cited from earlier work
[4] = in vivo; cited from earlier work
clinical = conditions: human, in vivo
[5] = parameters: method as in earlier work; conditions: fixed in the previously published model; cited from earlier work
[6] = estimate (95% CI), listed as atazanavir
[7] = Inter compartmental clearance, typical participant 67 kg, fat‐free mass 42 kg, estimate (95% CI)
[8] = typical participant 67 kg, fat‐free mass 42 kg, estimate (95% CI)

SMILES: COC(=O)N[C@H](C(=O)N[C@@H](Cc1ccccc1)[C@@H](O)CN(Cc1ccc(-c2ccccn2)cc1)NC(=O)[C@@H](NC(=O)OC)C(C)(C)C)C(C)(C)C [Atazanavir, atazanavir]
- Bound to plasma proteins (plasma proteins): about 86%
- Fold‐change in CL for ATV/r BID + RIF ([1]; estimate (95% CI)): 2.03 (1.82‐2.25) ‐fold
- Fold‐change in CL for ATV/r BID + RIF [1, 6]: 2 ‐fold
- Clearance, CL ([1]; ATV/r 300/100 mg QD without rifampicin, typical participant 67 kg, fat‐free mass 42 kg, typical estimate (95% CI)): 7.57 (6.42‐9.06) L/h
- Effect of doubling ATV/r dosing frequency on bioavailability ([1]; ATV/r BID with standard dose rifampicin): restored atazanavir bioavailability
- Effect of TDF on clearance and bioavailability ([1]; co-medication tenofovir disoproxil fumarate): affected neither
- BOV in F ([1]; estimate (95% CI)): 48.2 (40.7‐53.6) % CV
- BOV in MTT ([1]; estimate (95% CI)): 59.4 (49.3‐73.6) % CV
- Between occasion variability (BOV) in k a ([1]; estimate (95% CI)): 97.9 (80.8‐125) % CV
- Between subject variability in clearance ([1]; estimate (95% CI)): 27.6 (19.7‐36.7) % CV
- Between visit variability in clearance ([1]; estimate (95% CI)): 17.5 (14.4‐24.5) % CV
- Change in F for ATV/r QD + RIF ([1]; estimate (95% CI)): −52.5 (−62.5 −41.4) %
- Change in k a due to RIF ([1]; estimate (95% CI)): −67.3 (−76.2 −53.2) %
- Mean absorption transit time, MTT ([1]; estimate (95% CI)): 0.499 (0.429‐0.574) h
- Transit compartments, NN ([1]; fixed in the model): 10 Fixed n
- Vd [1]: 77.5 L
- bioavailability [1]: 100%
- clearance [1, 7]: 52.2 mL/min
- Fold‐change in CL for ATV/r QD + RIF ([1]; estimate (95% CI)): 3.05 (2.67‐3.45) ‐fold
- Fold‐change in CL for ATV/r QD + RIF [1, 6]: 3 ‐fold
- Effect of increasing rifampicin dose on clearance, bioavailability / pharmacokinetics [1]: no significant effect
- Reduction of bioavailability by rifampicin ([1]; rifampicin added to standard ATV/r QD regimen): 53%
- Volume of distribution (peripheral compartment) [1, 8]: 42.1(26.6‐79.0) L
- Fold-change in CL due to absence of ritonavir ([2]; A5231 all PK visits vs ATV/r without rifampicin (DERIVE visit 1), estimate (95% CI)): 2.13 (1.88 – 2.34) -fold
- BOV in F ([2]; human, in vivo): 58.3 (46.4 – 73.5) % CV
- BOV in MTT ([2]; human, in vivo): 48.1 (36.9 – 63.4) % CV
- Between occasion variability (BOV) in k a ([2]; human, in vivo): 101 (fixed) % CV
- Between subject variability in clearance ([2]; human, in vivo): 18.8 (13.7 – 24.4) % CV
- Change in F with rifampicin ([2]; human, in vivo): -55.3 (-64.0 – -46.2) %
- Change in ka with rifampicin ([2]; human, in vivo): -70.8 (fixed) %
- Clearance, CL ([2]; human, in vivo): 7.55 (fixed) L/h
- MTT longer in A5231 compared to DERIVE ([2]; human, in vivo): 2.5 ‐fold
- Mean absorption transit time, MTT ([2]; human, in vivo): 1.38 (1.15 – 1.61) h
- Reduction in bioavailability when rifampicin was coadministered ([2]; human, in vivo): 55%
- Transit compartments, NN ([2]; human, in vivo): 10 (fixed) n
- Vd ([2]; human, in vivo): 77.3 L
- Volume of distribution (peripheral compartment) ([2]; human, in vivo): 48.9 (fixed) L
- bioavailability ([2]; human, in vivo): 100%
- clearance ([2]; human, in vivo): 58.5 mL/min
- Equilibration half‐life, t 1/2 (plasma to PBMC) [3]: 0.963 (0.546‐1.51) h
- Effect of rifampicin on PBMC equilibration t 1/2 and PPC (intracellular accumulation) ([3]; addition of rifampicin to the regimen): did not affect the ratio of atazanavir concentration between PBMCs and plasma; also recorded: neither of which were affected; also recorded: does not affect the intracellular accumulation of atazanavir
- half-life [3]: ~1 h
- Kp [3]: 0.653
- Protein‐adjusted in vitro 90% inhibitory concentration (PA‐IC90) (HIV‐1): 0.014 mg/L

- Bioavailability decreased to, with rifampicin ([1]; ATV/r QD + rifampicin, relative to ATV/r without rifampicin): 31%
- BOV in F ([1]; estimate (95% CI)): 55.5 (48.1‐63.8) % CV
- BOV in MTT ([1]; estimate (95% CI)): 43.6 (37.7‐51.6) % CV
- Between occasion variability (BOV) in k a ([1]; estimate (95% CI)): 82.3 (67.3‐99.1) % CV
- Between subject variability in clearance ([1]; estimate (95% CI)): 16.4 (12.3‐21.8) % CV
- Change in F for ATV/r BID + RIF ([1]; estimate (95% CI)): −33.3 (−46.6 −10.9) %
- Change in F for ATV/r QD + RIF ([1]; estimate (95% CI)): −68.8 (−75.2 −58.5) %
- Mean absorption transit time, MTT ([1]; estimate (95% CI)): 0.483 (0.428‐0.545) h
- Transit compartments, NN ([1]; estimate (95% CI)): 12.3 (6.64‐17.7) n
- Vd [1]: 55.4 L
- bioavailability [1]: 100%
- clearance ([1]; Clearance, CL, ATV/r 300/100 mg QD without rifampicin, typical participant 67 kg, fat‐free mass 42 kg, typical estimate (95% CI)): 161 mL/min
- clearance [1, 7]: 26 mL/min
- Effect of increasing rifampicin dose on clearance, bioavailability / pharmacokinetics [1]: no further effect
- Volume of distribution (peripheral compartment) [1, 8]: 70.1 (39.7‐125) L
- Equilibration half‐life, t 1/2 (plasma to PBMC) [3]: 1.40 (1.38‐1.63) h
- half-life [3]: ~1 h
- Kp [3]: 1.68
SMILES: CC(C)c1nc(CN(C)C(=O)N[C@H](C(=O)N[C@@H](Cc2ccccc2)C[C@H](O)[C@H](Cc2ccccc2)NC(=O)OCc2cncs2)C(C)C)cs1 [Ritonavir, ritonavir]
- Time to steady‐state concentrations [4]: about 2 weeks

SMILES: CO[C@H]1/C=C/O[C@@]2(C)Oc3c(C)c(O)c4c(O)c(c(/C=N/N5CCN(C)CC5)c(O)c4c3C2=O)NC(=O)/C(C)=C\C=C\[C@H](C)[C@H](O)[C@@H](C)[C@@H](O)[C@@H](C)[C@H](OC(C)=O)[C@@H]1C [rifampicin]
- BOV in MTT (estimate (95% CI)): 46.8 (40.0 – 56.8) % CV
- BOV in ka (estimate (95% CI)): 104 (85.3 – 136) % CV
- Between occasion variability (BOV) in F (estimate (95% CI)): 22.0 (17.9 – 26.3) % CV
- Between subject variability in clearance (estimate (95% CI)): 27.7 (22.1 – 35.2) % CV
- Mean absorption transit time, MTT (estimate (95% CI)): 0.502 (0.447 – 0.558) h
- Transit compartments, NN (estimate (95% CI)): 20.3 (15.8 – 25.9) n
- Bioavailability, F (human, in vivo): 1 (fixed) fraction
- Km (clinical): 4.9 µg/mL
- Vd (clinical): 44.7 L
- clearance (clinical): 550 mL/min
- Unbound fraction of rifampicin, fu [5]: 0.2 (fixed) fraction
